What is called IC50 is the midpoint of a concentration-inhibition curve.

The experiment can be described thus: Binding affinity to VDR in scrambled siRNA-transfected human MCF7 cells assessed as cell growth inhibition by measuring reduction in BrdU incorporation after 16 hrs by ELISA.
On to `CCn1c(C(=O)N[C@@H](C)CO)ccc1C(CC)(CC)c1ccc(OCC(O)C(C)(C)C)c(C)c1` (stereo partly drawn), for which the IC50 came to 4.3 µM.

Turning to `CCN(CC)CCNC(=O)c1ccc(C(CC)(CC)c2ccc(OCSC)c(C)c2)n1CC`, the IC50 is 0.97 µM.

Regarding `CCN(CC)CCNC(=O)c1cc(C(CC)(CC)c2ccc(OCS(=O)(=O)c3ccccc3)c(C)c2)cn1CC`, the IC50 turned out to be 0.65 µM.

Values taken from BindingDB's records for doi:10.1016/j.ejmech.2018.08.085 (China Pharmaceutical University, 2018).
